Experimental data as given in patent publication US8846698B2, “Pyrrolo[2,3-d]pyrimidine tropomysin-related kinase inhibitors” (Pfizer Limited, priority 2011, dated 2014).

These molecules were tested against TRKA (Homo sapiens (Human), UniProt P04629) (assay: Isolated TRK enzyme assay (HTRF KinEASE-TK), TRKA). Details: read-out: Trka enzyme (IC50).
Format: biochemical

TRKA, sequence (P04629 441-796): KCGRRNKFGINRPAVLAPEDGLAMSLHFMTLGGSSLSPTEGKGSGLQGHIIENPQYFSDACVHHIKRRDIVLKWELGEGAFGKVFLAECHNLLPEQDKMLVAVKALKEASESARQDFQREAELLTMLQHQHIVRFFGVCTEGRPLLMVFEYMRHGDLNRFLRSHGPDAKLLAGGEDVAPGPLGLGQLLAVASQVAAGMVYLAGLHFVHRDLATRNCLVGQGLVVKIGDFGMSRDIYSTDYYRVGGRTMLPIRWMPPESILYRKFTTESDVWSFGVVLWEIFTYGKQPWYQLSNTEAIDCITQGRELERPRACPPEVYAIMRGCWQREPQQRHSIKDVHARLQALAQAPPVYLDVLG

| IC50 [µM] | Compound |
| --- | --- |
| 1.03 | CC(C)n1cc(C(=O)c2cncc(NC(=O)Cc3cncc(OC4CC4)c3)c2)c2cncnc21 [Example 91, 2-[5-(cyclopropyloxy)pyridin-3-yl]-N-{5-[(7-isopropyl-7H-pyrrolo[2,3-d]pyrimidin-5-yl)carbonyl]pyridin-3-yl}acetamide] |
| 0.0415 | CC(C)n1cc(C(=O)c2cncc(NC(=O)Cc3ccc4c(c3)CCO4)c2)c2cncnc21 [Example 92, 2-(2,3-dihydro-1-benzofuran-5-yl)-N-{5-[(7-isopropyl-7H-pyrrolo[2,3-d]pyrimidin-5-yl)carbonyl]pyridin-3-yl}acetamide] |
| 0.0124 | CC(C)n1cc(C(=O)c2cncc(NC(=O)Cn3cc4ccccc4n3)c2)c2cncnc21 [Example 93, 2-(2H-indazol-2-yl)-N-{5-[(7-isopropyl-7H-pyrrolo[2,3-d]pyrimidin-5-yl)carbonyl]pyridin-3-yl}acetamide] |
| 0.0548 | CC(C)n1cc(C(=O)c2cncc(NC(=O)Cn3cc4cc(F)ccc4n3)c2)c2cncnc21 [Example 94, 2-(5-fluoro-2H-indazol-2-yl)-N-{5-[(7-isopropyl-7H-pyrrolo[2,3-d]pyrimidin-5-yl)carbonyl]pyridin-3-yl}acetamide] |
| 0.00395 | CC(C)n1cc(C(=O)c2cncc(NC(=O)Cn3ncc4cc(F)ccc43)c2)c2cncnc21 [Example 95, 2-(5-fluoro-1H-indazol-1-yl)-N-{5-[(7-isopropyl-7H-pyrrolo[2,3-d]pyrimidin-5-yl)carbonyl]pyridin-3-yl}acetamide] |
| 0.00545 | Cc1cc(C(F)(F)F)nn1CC(=O)Nc1cncc(C(=O)c2cn(C(C)C)c3ncncc23)c1 [Example 96, N-{5-[(7-isopropyl-7H-pyrrolo[2,3-d]pyrimidin-5-yl)carbonyl]pyridin-3-yl}-2-[5-methyl-3-(trifluoromethyl)-1H-pyrazol-1-yl]acetamide] |
| 0.00486 | CC(C)n1cc(C(=O)c2cncc(NC(=O)Cn3ccc(C(F)(F)F)n3)c2)c2cncnc21 [Example 97, N-{5-[(7-isopropyl-7H-pyrrolo[2,3-d]pyrimidin-5-yl)carbonyl]pyridin-3-yl}-2-[3-(trifluoromethyl)-1H-pyrazol-1-yl]acetamide] |
| 0.00516 | CC(C)n1cc(C(=O)c2cncc(NC(=O)Cc3ccc(Cl)cn3)c2)c2cncnc21 [Example 98, 2-(5-chloropyridin-2-yl)-N-{5-[(7-isopropyl-7H-pyrrolo[2,3-d]pyrimidin-5-yl)carbonyl]pyridin-3-yl}acetamide] |
| 0.0256 | CC(C)n1cc(C(=O)c2cncc(NC(=O)Cc3ccc4cccnc4c3)c2)c2cncnc21 [Example 100, N-{5-[(7-isopropyl-7H-pyrrolo[2,3-d]pyrimidin-5-yl)carbonyl]pyridin-3-yl}-2-quinolin-7-ylacetamide] |
| 0.204 | CC(C)n1cc(C(=O)c2cncc(NC(=O)Cn3cc4cccc(F)c4n3)c2)c2cncnc21 [Example 101, 2-(7-fluoro-2H-indazol-2-yl)-N-{5-[(7-isopropyl-7H-pyrrolo[2,3-d]pyrimidin-5-yl)carbonyl]pyridin-3-yl}acetamide] |
| 0.0429 | CC(C)n1cc(C(=O)c2cncc(NC(=O)Cn3ncc4cccnc43)c2)c2cncnc21 [Example 102, N-{5-[(7-isopropyl-7H-pyrrolo[2,3-d]pyrimidin-5-yl)carbonyl]pyridin-3-yl}-2-(1H-pyrazolo[3,4-b]pyridin-1-yl)acetamide] |
| 0.0417 | CC(C)n1cc(C(=O)c2cncc(NC(=O)Cn3ncc4ccccc43)c2)c2cncnc21 [Example 103, 2-(1H-indazol-1-yl)-N-{5-[(7-isopropyl-7H-pyrrolo[2,3-d]pyrimidin-5-yl)carbonyl]pyridin-3-yl}acetamide] |
| 0.02 | Cc1cc(C(C)C)nn1CC(=O)Nc1cncc(C(=O)c2cn(C(C)C)c3ncncc23)c1 [Example 104, 2-(3-isopropyl-5-methyl-1H-pyrazol-1-yl)-N-{5-[(7-isopropyl-7H-pyrrolo[2,3-d]pyrimidin-5-yl)carbonyl]pyridin-3-yl}acetamide] |
| 0.0256 | CC(C)c1cn(CC(=O)Nc2cncc(C(=O)c3cn(C(C)C)c4ncncc34)c2)nn1 [Example 105, N-{5-[(7-isopropyl-7H-pyrrolo[2,3-d]pyrimidin-5-yl)carbonyl]pyridin-3-yl}-2-(4-isopropyl-1H-1,2,3-triazol-1-yl)acetamide] |
| 0.0148 | CC(C)n1cc(C(=O)c2cncc(NC(=O)Cn3cc(C(F)(F)F)nn3)c2)c2cncnc21 [Example 106, N-{5-[(7-isopropyl-7H-pyrrolo[2,3-d]pyrimidin-5-yl)carbonyl]pyridin-3-yl}-2-[4-(trifluoromethyl)-1H-1,2,3-triazol-1-yl]acetamide] |
| 0.0123 | CC(C)n1cc(C(=O)c2cncc(NC(=O)Cn3ncc4cccc(F)c43)c2)c2cncnc21 [Example 107, 2-(7-fluoro-1H-indazol-1-yl)-N-{5-[(7-isopropyl-7H-pyrrolo[2,3-d]pyrimidin-5-yl)carbonyl]pyridin-3-yl}acetamide] |
| 0.00763 | CC(C)n1cc(C(=O)c2cncc(NC(=O)Cn3nc4ccccc4n3)c2)c2cncnc21 [Example 108, 2-(2H-benzotriazol-2-yl)-N-{5-[(7-isopropyl-7H-pyrrolo[2,3-d]pyrimidin-5-yl)carbonyl]pyridin-3-yl}acetamide] |

| IC50 [µM] | Compound |
| --- | --- |
| 0.0651 | Cc1[nH]c2c(F)cccc2c1CC(=O)Nc1cncc(C(=O)c2cn(C(C)C)c3ncncc23)c1 [Example 109, 2-(7-fluoro-2-methyl-1H-indol-3-yl)-N-{5-[(7-isopropyl-7H-pyrrolo[2,3-d]pyrimidin-5-yl)carbonyl]pyridin-3-yl}acetamide] |
| 0.0365 | Cc1[nH]c2ccc(Cl)cc2c1CC(=O)Nc1cncc(C(=O)c2cn(C(C)C)c3ncncc23)c1 [Example 110, 2-(5-chloro-2-methyl-1H-indol-3-yl)-N-{5-[(7-isopropyl-7H-pyrrolo[2,3-d]pyrimidin-5-yl)carbonyl]pyridin-3-yl}acetamide] |
| 0.0462 | CC(C)n1cc(C(=O)c2cncc(NC(=O)Cn3ccc4ccccc43)c2)c2cncnc21 [Example 111, 2-(1H-indol-1-yl)-N-{5-[(7-isopropyl-7H-pyrrolo[2,3-d]pyrimidin-5-yl)carbonyl]pyridin-3-yl}acetamide] |
| 0.0578 | CC(C)n1ncc(CC(=O)Nc2cncc(C(=O)c3cn(C(C)C)c4ncncc34)c2)c1C(F)(F)F [Example 112, N-{5-[(7-isopropyl-7H-pyrrolo[2,3-d]pyrimidin-5-yl)carbonyl]pyridin-3-yl}-2-[1-isopropyl-5-(trifluoromethyl)-1H-pyrazol-4-yl]acetamide] |
| 0.3 | Cc1ccn(CC(=O)Nc2cncc(C(=O)c3cn(C(C)C)c4ncncc34)c2)n1 [Example 113, N-{5-[(7-isopropyl-7H-pyrrolo[2,3-d]pyrimidin-5-yl)carbonyl]pyridin-3-yl}-2-(3-methyl-1H-pyrazol-1-yl)acetamide] |
| 0.976 | CC(C)n1cc(C(=O)c2cncc(NC(=O)Cn3cccn3)c2)c2cncnc21 [Example 114, N-{5-[(7-isopropyl-7H-pyrrolo[2,3-d]pyrimidin-5-yl)carbonyl]pyridin-3-yl}-2-(1H-pyrazol-1-yl)acetamide] |
| 0.102 | Cc1cc(C)n(CC(=O)Nc2cncc(C(=O)c3cn(C(C)C)c4ncncc34)c2)n1 [Example 115, 2-(3,5-dimethyl-1H-pyrazol-1-yl)-N-{5-[(7-isopropyl-7H-pyrrolo[2,3-d]pyrimidin-5-yl)carbonyl]pyridin-3-yl}acetamide] |
| 0.103 | Cc1[nH]c2ccccc2c1CC(=O)Nc1cncc(C(=O)c2cn(C(C)C)c3ncncc23)c1 [Example 116, N-{5-[(7-isopropyl-7H-pyrrolo[2,3-d]pyrimidin-5-yl)carbonyl]pyridin-3-yl}-2-(2-methyl-1H-indol-3-yl)acetamide] |
| 0.0684 | COc1ccc2[nH]cc(CC(=O)Nc3cncc(C(=O)c4cn(C(C)C)c5ncncc45)c3)c2c1 [Example 117, N-{5-[(7-isopropyl-7H-pyrrolo[2,3-d]pyrimidin-5-yl)carbonyl]pyridin-3-yl}-2-(5-methoxy-1H-indol-3-yl)acetamide] |
| 2.55 | CC(C)n1cc(C(=O)c2cncc(NC(=O)Cc3cccnc3)c2)c2cncnc21 [Example 118, N-{5-[(7-isopropyl-7H-pyrrolo[2,3-d]pyrimidin-5-yl)carbonyl]pyridin-3-yl}-2-pyridin-3-ylacetamide] |
| 0.233 | CC(C)n1cc(C(=O)c2cncc(NC(=O)Cn3nnc4cc(Cl)ccc43)c2)c2cncnc21 [Example 119, 2-(5-chloro-1H-benzotriazol-1-yl)-N-{5-[(7-isopropyl-7H-pyrrolo[2,3-d]pyrimidin-5-yl)carbonyl]pyridin-3-yl}acetamide] |
| 0.053 | CC(C)n1cc(C(=O)c2cncc(NC(=O)Cn3ccc(-c4cccs4)n3)c2)c2cncnc21 [Example 120, N-{5-[(7-isopropyl-7H-pyrrolo[2,3-d]pyrimidin-5-yl)carbonyl]pyridin-3-yl}-2-[3-(2-thienyl)-1H-pyrazol-1-yl]acetamide] |
| 5.2 | Cc1ccn2cc(CC(=O)Nc3cncc(C(=O)c4cn(C(C)C)c5ncncc45)c3)nc2n1 [Example 121, N-{5-[(7-isopropyl-7H-pyrrolo[2,3-d]pyrimidin-5-yl)carbonyl]pyridin-3-yl}-2-(7-methylimidazo[1,2-a]pyrimidin-2-yl)acetamide] |
| 5.84 | Cc1nc(C)c2ncn(CC(=O)Nc3cncc(C(=O)c4cn(C(C)C)c5ncncc45)c3)c2n1 [Example 122, 2-(2,6-dimethyl-9H-purin-9-yl)-N-{5-[(7-isopropyl-7H-pyrrolo[2,3-d]pyrimidin-5-yl)carbonyl]pyridin-3-yl}acetamide] |
| 0.143 | CC(C)n1cc(C(=O)c2cncc(NC(=O)Cn3ncc4ccc([N+](=O)[O-])cc43)c2)c2cncnc21 [Example 123, N-{5-[(7-isopropyl-7H-pyrrolo[2,3-d]pyrimidin-5-yl)carbonyl]pyridin-3-yl}-2-(6-nitro-1H-indazol-1-yl)acetamide] |
| 0.244 | CC(C)n1cc(C(=O)c2cncc(NC(=O)Cc3nn(C)c4ccc(Cl)cc34)c2)c2cncnc21 [Example 124, 2-(5-chloro-1-methyl-1H-indazol-3-yl)-N-{5-[(7-isopropyl-7H-pyrrolo[2,3-d]pyrimidin-5-yl)carbonyl]pyridin-3-yl}acetamide] |
